Active and inactive are the calls of the source.
Assays:
Large T antigen = Large T antigen (Simian virus 40, UniProt P03070); type: functional, Betapolyomavirus macacae;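 also: Confirmatory-stage PubChem screen for compounds that inhibit SV40 T antigen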
[1] = molecular target: T1, Rac GTPase-activating protein 1 (Homo sapiens, UniProt Q9H0H5); experiment: blockers of MgcRacGAP-driven Rac1 GTP hydrolysis – biochemical, ADP Hunter fluorescence, primary and confirmatory, confirmation (AID 624330); type: functional
T1 sequence (Q9H0H5 whole entry): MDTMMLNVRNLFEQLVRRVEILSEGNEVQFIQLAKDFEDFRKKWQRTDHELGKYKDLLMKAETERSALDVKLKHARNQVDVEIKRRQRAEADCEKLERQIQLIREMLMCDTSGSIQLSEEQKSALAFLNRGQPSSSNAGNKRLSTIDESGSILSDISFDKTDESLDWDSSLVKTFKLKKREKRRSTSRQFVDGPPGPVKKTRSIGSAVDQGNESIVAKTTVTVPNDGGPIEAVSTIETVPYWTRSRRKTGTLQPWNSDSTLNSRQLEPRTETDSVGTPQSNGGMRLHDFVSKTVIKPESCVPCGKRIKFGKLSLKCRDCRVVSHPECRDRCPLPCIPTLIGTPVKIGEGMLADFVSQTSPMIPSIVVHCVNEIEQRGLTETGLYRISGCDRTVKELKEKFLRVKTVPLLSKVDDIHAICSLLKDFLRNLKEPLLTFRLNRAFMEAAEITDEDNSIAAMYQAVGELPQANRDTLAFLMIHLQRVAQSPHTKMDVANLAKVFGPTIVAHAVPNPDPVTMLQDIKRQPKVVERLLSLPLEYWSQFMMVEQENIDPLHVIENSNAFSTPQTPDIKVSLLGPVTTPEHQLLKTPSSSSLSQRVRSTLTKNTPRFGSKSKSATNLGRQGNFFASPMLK

Leucine aminopeptidase = molecular target: T2, Leucine aminopeptidase (Plasmodium falciparum 3D7, UniProt Q8IL11); experiment: P. falciparum M17LAP inhibitors, primary screen, biochemical, fluorogenic H-Leu-NHMec substrate, 1536-well (AID 1619); type: functional
T2 sequence (Q8IL11 whole entry): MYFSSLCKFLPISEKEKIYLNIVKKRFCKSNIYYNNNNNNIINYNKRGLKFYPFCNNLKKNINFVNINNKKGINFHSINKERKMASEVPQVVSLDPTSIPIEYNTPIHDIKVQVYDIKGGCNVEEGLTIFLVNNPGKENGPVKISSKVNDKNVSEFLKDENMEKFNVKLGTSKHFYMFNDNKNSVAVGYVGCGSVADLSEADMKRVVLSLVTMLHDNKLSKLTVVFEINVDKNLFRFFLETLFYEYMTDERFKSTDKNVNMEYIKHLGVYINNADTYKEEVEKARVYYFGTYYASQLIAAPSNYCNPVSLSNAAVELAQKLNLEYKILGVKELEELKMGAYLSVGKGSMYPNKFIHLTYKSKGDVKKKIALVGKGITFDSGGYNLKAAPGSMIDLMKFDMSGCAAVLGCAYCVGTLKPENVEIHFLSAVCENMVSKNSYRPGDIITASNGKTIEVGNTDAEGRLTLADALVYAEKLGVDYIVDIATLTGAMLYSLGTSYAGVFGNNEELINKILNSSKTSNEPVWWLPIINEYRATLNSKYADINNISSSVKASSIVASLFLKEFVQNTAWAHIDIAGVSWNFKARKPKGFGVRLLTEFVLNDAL

[2] = molecular target: T3, Polyadenylate-binding protein 1 (Homo sapiens, UniProt P11940); experiment: MLLE binding blockers, Cy5 peptide tracer – biochemical, fluorescence polarization, Cy5-PAM2 peptide, secondary, miRNA deadenylation inhibitor project, dose response (AID 602260); type: functional; conditions: read-out: IC50_Mean
[3] = molecular target: T3, Polyadenylate-binding protein 1; experiment: MLLE domain peptide-binding blockers, IC50 – biochemical, fluorescence polarization, FITC-PAM2 peptide, dose response (AID 602259); type: functional; conditions: read-out: IC50_Mean
Cytochrome P450 2D6 = Cytochrome P450 2D6 (Homo sapiens, UniProt P10635);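 also: CYP2D6 member of a cytochrome P450 panel assay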
Cytochrome P450 2C9 = Cytochrome P450 2C9 (Homo sapiens, UniProt P11712)
Streptokinase A = molecular target: T4, Streptokinase A (Streptococcus pyogenes serotype M1, UniProt P10520); experiment: viability-normalized secreted streptokinase activity reduction – plasminogen activation absorbance, OD405, dose response (AID 1914); type: functional, Streptococcus pyogenes M1 GAS;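 also: secreted streptokinase activity via plasminogen activation per viability signal from cell pellet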
T4 sequence (P10520 whole entry): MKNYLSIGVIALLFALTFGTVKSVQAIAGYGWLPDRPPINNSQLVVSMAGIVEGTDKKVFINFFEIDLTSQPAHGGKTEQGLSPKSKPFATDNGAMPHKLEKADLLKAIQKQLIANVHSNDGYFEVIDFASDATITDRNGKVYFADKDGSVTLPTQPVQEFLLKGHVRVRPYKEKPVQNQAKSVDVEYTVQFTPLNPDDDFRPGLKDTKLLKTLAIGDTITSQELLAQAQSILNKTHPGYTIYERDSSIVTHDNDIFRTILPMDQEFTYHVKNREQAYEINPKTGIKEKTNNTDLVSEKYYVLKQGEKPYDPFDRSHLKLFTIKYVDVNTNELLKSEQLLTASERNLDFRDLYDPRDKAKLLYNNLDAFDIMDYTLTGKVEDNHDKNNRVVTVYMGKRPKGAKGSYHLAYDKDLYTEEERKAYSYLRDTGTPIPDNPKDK

Streptococcus = experiment: GAS UMAA2166 growth inhibition – luminescence, BacTiterGlo, counter-screen for streptokinase expression inhibitor project, dose response (AID 1915); type: functional, organism-based;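 also: potency for reduction of bacterial viability or growth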
[4] = test system: Streptococcus sp. 'group A'; experiment: Streptococcus pyogenes SK(-)GAS viability under kanamycin – luminescence, BacTiterGlo, confirmation, counter-screen for streptokinase expression inhibitor project, dose response (AID 1900); type: functional, organism-based
[5] = molecular target: T5, Zinc finger protein mex-5 (Caenorhabditis elegans, UniProt Q9XUB2); experiment: potency of MEX-5 RNA-binding blockers – biochemical, C. elegans, fluorescence polarization, dose response (AID 1960)
T5 sequence (Q9XUB2 whole entry): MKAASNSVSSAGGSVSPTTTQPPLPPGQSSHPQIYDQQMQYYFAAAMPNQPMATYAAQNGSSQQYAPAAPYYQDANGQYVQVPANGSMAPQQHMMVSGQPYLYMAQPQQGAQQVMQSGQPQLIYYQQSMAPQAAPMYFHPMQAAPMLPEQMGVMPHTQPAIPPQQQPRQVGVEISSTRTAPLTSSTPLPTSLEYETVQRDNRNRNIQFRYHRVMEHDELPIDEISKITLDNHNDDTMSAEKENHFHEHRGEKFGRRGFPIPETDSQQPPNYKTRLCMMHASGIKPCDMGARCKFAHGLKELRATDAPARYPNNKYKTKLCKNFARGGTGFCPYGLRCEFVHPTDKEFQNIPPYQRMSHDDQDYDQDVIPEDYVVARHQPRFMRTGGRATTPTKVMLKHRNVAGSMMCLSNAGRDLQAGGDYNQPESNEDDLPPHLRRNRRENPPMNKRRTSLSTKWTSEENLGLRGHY

[6] = molecular target: T6, RNA-binding protein pos-1 (Caenorhabditis elegans, UniProt G5EF15); experiment: disruptors of C. elegans POS-1 RNA interaction – biochemical, fluorescence polarization, dose response (AID 1964);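 also: purified POS-1 fused to maltose binding protein made in E. coli; potency of compounds blocking POS-1 binding to fluorescent RNA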
T6 sequence (G5EF15 whole entry): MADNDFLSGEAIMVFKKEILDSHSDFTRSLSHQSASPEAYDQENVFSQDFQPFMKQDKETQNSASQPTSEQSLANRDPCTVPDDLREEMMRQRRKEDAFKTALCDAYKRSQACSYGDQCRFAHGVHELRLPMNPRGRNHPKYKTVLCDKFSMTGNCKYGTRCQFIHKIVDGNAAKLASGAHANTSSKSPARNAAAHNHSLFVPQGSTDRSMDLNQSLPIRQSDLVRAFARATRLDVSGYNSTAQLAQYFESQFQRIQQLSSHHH

Cytochrome P450 2C19 = Cytochrome P450 2C19 (Homo sapiens, UniProt P33261); experiment: Cytochrome panel assay with activity outcomes. Panel member name: p450-cyp2c19 Compounds with AC50 equal or less than 10 uM are considered active; type: functional; conditions: read-out: AC50
Protein RecA = molecular target: T7, Protein RecA (Mycobacterium tuberculosis, UniProt P9WHJ3); experiment: Fluorescence Cell-Free Homogeneous Dose Retest to Identify Inhibitors of RecA-Intein Splicing Activity. [Related pubchem assays (depositor defined):AID2097, AID2223, AID489010, AID492950]; type: functional
T7 sequence (P9WHJ3 whole entry): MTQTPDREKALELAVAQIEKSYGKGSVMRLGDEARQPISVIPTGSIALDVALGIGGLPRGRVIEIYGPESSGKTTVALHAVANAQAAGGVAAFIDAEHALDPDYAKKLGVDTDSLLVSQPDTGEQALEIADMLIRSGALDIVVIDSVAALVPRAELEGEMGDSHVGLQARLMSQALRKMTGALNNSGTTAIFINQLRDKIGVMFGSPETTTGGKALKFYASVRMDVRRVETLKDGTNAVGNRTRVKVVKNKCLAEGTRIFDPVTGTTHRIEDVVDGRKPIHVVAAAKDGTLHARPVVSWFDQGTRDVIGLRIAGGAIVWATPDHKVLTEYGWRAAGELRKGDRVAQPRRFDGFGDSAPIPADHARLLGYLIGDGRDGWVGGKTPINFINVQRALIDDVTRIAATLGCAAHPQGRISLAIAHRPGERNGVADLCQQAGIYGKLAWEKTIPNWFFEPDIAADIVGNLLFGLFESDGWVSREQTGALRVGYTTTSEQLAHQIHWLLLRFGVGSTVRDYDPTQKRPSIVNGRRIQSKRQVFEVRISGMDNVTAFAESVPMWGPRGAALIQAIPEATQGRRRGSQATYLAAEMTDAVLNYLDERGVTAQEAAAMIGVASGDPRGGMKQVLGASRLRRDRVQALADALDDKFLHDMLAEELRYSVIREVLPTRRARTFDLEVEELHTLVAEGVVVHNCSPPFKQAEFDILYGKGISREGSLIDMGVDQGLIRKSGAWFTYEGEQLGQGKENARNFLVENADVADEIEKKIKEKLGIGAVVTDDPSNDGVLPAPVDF

[7] = molecular target: T8, Replicative DNA helicase DnaB (Mycobacterium tuberculosis, UniProt P9WMR3); experiment: DnaB intein splicing inhibitors, dose response, biochemical, cell-free fluorescence (AID 449749); type: functional
T8 sequence (P9WMR3 whole entry): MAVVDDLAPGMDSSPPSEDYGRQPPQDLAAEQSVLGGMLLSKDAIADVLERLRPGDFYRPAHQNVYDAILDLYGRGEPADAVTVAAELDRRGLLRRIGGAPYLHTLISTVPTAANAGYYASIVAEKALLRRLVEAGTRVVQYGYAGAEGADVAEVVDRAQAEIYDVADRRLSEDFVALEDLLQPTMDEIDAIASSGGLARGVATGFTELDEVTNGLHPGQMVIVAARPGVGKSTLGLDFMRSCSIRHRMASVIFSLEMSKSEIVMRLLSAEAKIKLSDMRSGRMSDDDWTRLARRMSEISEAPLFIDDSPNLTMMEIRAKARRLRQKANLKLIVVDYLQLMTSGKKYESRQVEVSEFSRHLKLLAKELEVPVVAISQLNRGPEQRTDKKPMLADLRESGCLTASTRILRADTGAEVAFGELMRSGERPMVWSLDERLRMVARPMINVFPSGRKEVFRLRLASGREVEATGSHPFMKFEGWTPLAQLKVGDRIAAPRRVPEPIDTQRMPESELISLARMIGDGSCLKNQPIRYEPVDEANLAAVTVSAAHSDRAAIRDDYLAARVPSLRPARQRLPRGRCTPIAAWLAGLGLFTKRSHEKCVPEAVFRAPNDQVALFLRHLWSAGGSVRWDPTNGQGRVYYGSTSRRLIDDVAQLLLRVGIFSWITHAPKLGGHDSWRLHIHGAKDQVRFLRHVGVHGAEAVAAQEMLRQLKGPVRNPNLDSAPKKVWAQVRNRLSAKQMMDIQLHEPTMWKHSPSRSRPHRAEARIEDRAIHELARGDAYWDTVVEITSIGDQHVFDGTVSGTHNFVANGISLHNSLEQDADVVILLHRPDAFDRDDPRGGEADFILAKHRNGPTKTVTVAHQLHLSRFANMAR

Chain of Cytochrome P450 2C9 (P11712 whole entry): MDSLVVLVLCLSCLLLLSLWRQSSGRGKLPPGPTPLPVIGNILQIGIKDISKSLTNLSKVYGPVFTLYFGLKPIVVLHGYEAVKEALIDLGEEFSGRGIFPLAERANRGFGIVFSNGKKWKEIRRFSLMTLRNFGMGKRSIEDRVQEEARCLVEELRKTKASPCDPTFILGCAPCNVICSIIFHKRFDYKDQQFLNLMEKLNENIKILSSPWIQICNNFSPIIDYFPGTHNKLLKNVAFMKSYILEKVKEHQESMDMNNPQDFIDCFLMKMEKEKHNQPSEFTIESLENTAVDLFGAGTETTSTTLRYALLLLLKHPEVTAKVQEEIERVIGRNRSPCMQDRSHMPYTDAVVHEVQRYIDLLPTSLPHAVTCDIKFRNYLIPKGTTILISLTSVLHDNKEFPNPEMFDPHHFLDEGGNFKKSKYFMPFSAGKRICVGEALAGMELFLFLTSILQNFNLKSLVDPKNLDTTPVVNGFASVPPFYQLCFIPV
T3 sequence (P11940 whole entry, the tested form may be a part): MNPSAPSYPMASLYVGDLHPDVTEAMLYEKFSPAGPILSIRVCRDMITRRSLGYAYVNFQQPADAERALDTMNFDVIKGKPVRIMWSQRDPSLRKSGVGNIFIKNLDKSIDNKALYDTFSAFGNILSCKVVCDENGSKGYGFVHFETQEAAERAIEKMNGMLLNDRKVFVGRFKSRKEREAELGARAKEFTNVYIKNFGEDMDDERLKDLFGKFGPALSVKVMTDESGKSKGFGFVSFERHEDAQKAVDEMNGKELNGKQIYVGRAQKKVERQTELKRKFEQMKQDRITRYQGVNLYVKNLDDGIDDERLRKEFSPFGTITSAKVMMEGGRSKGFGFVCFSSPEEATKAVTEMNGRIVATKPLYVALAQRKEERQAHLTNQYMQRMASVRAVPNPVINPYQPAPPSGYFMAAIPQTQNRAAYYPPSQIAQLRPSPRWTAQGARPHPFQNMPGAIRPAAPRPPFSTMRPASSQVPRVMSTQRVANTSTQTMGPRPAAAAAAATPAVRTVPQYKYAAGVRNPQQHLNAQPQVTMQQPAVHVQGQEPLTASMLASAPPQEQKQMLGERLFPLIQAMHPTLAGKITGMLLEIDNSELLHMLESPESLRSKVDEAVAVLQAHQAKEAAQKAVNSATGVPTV
Chain of Cytochrome P450 2C19 (P33261 whole entry): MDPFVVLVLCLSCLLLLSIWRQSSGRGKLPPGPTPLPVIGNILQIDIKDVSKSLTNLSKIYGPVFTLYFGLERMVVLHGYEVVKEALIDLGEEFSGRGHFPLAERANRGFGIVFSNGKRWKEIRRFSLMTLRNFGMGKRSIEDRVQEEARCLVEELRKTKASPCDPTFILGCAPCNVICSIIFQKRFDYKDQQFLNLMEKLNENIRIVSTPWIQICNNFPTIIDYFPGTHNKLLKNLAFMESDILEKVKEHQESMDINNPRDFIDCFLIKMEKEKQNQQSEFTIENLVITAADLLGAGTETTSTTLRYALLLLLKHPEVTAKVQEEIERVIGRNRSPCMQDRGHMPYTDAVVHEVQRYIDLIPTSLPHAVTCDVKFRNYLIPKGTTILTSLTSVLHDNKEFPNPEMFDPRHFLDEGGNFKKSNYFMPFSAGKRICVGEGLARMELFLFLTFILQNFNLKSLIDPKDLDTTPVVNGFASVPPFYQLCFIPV
Chain of Cytochrome P450 2D6 (P10635 whole entry): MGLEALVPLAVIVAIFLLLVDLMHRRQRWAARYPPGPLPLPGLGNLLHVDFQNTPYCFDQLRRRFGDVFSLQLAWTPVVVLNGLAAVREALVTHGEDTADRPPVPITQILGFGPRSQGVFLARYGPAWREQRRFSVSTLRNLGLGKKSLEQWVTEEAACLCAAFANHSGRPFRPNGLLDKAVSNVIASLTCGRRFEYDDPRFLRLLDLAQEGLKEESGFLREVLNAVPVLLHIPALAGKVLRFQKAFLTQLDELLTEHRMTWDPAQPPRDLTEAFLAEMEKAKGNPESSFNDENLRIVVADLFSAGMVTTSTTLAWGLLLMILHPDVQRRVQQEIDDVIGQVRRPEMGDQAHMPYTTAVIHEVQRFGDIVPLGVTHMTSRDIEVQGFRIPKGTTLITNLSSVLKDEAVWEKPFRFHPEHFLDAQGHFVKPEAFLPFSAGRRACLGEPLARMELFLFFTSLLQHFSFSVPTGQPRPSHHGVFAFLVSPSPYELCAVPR
Chain of Large T antigen (P03070 whole entry): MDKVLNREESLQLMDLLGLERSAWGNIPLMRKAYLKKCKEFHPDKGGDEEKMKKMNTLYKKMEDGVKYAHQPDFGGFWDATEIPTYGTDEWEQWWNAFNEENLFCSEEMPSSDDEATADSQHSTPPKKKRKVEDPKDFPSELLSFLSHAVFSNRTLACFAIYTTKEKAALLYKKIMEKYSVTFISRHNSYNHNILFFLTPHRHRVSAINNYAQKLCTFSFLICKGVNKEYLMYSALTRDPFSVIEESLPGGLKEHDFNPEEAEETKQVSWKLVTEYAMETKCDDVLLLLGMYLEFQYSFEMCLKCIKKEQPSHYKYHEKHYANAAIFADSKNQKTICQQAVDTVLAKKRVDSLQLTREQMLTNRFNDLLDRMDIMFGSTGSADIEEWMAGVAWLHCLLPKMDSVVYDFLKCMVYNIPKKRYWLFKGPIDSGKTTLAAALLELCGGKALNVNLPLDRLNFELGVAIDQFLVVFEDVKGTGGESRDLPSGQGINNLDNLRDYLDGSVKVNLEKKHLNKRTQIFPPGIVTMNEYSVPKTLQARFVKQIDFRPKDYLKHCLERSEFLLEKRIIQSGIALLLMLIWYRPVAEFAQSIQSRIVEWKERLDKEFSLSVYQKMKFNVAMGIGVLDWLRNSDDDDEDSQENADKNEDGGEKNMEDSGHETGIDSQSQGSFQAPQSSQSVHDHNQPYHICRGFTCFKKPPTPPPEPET

O=C1C2C3C=CC(CC3)C2C(=O)N1/N=C/c1ccc(O)c(O)c1 (stereo unspecified)
IC50 (Large T antigen): 4.4 µM (active)
IC50 [1]: 74 µM (active)
IC50 (Leucine aminopeptidase): 34.3 µM (active)

COC1=CC(=NCl)C=CC1=NCl
IC50 [2]: > 66 µM (inactive)
IC50 [3]: 49.9 µM (inactive)

COc1ccccc1N1CCN(/N=C/c2c(C)nn(-c3ccccc3)c2C)CC1
IC50 [2]: > 66 µM (inactive)
IC50 [3]: > 66 µM (inactive)

CCn1c(SC)nnc1C1CCN(S(=O)(=O)c2ccc(OC)cc2)CC1
AC50 (Cytochrome P450 2D6): 8.91 µM (inconclusive)
AC50 (Cytochrome P450 2C9): inconclusive

O=C1NN(CCO)C(=S)Nc2ccccc21
IC50 [2]: > 66 µM (inactive)
IC50 [3]: > 66 µM (inactive)

CC(C)C1OC2c3cccc4cccc(c34)C2N1c1ccccc1 (stereo unspecified)
IC50 [2]: > 66 µM (inactive)
IC50 [3]: > 66 µM (inactive)
EC50 (Streptokinase A): 2.61 µM (active)
EC50 (Streptococcus): > 150 µM (not active)
EC50 [4]: 3.22 µM (active)

Cc1cc(C)c2c(=O)c(C#N)coc2c1
IC50 [2]: > 66 µM (inactive)
IC50 [3]: > 66 µM (inactive)

NC(=O)c1cccc2c1-c1ccccc1/C2=N/NC(N)=S
IC50 [2]: > 66 µM (inactive)
IC50 [3]: > 66 µM (inactive)

Nc1cccc2c1C(=O)N(Cc1nnc(-c3ccccc3Br)o1)C2=O
IC50 [2]: > 66 µM (inactive)
IC50 [3]: 48.1 µM (inactive)
EC50 [5]: 29.4 µM (active)
EC50 [6]: 40 µM (active)

COc1ccc(CNc2nc(-c3ccccc3CN(C)C)nc3ccccc23)c(OC)c1
AC50 (Cytochrome P450 2C19): 15.8 µM (inconclusive)
AC50 (Cytochrome P450 2C9): inconclusive

Oc1cccc(C(=S)N2CCCCC2)c1
IC50 [2]: > 66 µM (inactive)
IC50 [3]: > 66 µM (inactive)

O/N=C/c1c[nH]c2ccccc12
IC50 (Leucine aminopeptidase): 13.2 µM (active)

CS(=O)(=O)Nc1cccc(-c2cc(Nc3ccccc3)ncn2)c1
AC50 (Cytochrome P450 2C19): 31.6 µM (inconclusive)
AC50 (Cytochrome P450 2D6): 25.1 µM (inconclusive)
AC50 (Cytochrome P450 2C9): inconclusive

Cc1ccc(-c2n[nH]c3c2C(C)C(C#N)=C(N)O3)cc1 (stereo unspecified)
EC50 (Protein RecA): 0.518 µM (active)
AC50 [7]: > 380 µM (inconclusive)
IC50 (Leucine aminopeptidase): 16.3 µM (active)

CC(C)(C)C1CCc2c(C(=O)NNC(=O)CCCC(=O)O)csc2C1 (stereo unspecified)
IC50 (Leucine aminopeptidase): 11.6 µM (active)

— ChEMBL document CHEMBL1201862, “PubChem BioAssay data set” (2004)
